From US8822533B1, “Methods and compositions for repelling and/or killing insects” (The United States of America, as represented by the …, priority 2011, dated 2014)

How the values were obtained:
[1] = test system: Mosquitoes, either Aedes aegypti (Liverpool) or Anopheles stephensi Liston; assay: K&D module in vitro bioassay: biting protection, knockdown and mortality; type: in vivo; conditions: for mortality at 0.0025 µM / mortality at 0.025 µM: Aedes aegypti; for mortality at 0.0025 µM: 24 h; for mortality at 0.025 µM: 48 h
Description: In vitro bioassays were conducted as described by Klun et. al. (Klun, J. A., et al., J. Med. Entomol., 40: 293-299 (2005)). Each test replicate consisted of 3 treatments: a control (EtOH); a standard (Deet, 4.54 nmol/μl); and an experimental compound (pyrethroid analogs, 4.54 nmol/ul). The 3 treatments were randomly assigned to consecutive cells in 2, 6-cell reservoirs connected in series to a single water-bath pump; thus, 4 replicates could be tested/run. Tests were performed in an Air Science USA hood, with an air movement velocity of approx. 110-120 ft./min., temperature of 25-27° C., and RH of 15-25%. A 6-celled reservoir was connected to and heated by a constant-temperature (38° C.) water circulator (Lauda E100, Wobser GMGH and Co., Konigshofell, Germany).
Prior to each test, the upper surface of each reservoir was coated with a thin layer of high-vacuum silicone grease (Dow Corning Corp., Midland, Mich.), and the cells then filled (approx. 6 ml. capacity) or topped-off with either: (1) expired human red blood cells suspended in citrate-phosphate-dextrose-adenine (CPDA) solution, not more than 1 month past expiration date, and to which 110 mg ATP/35 ml. blood-CPDA had been added on the day of testing; or (2) CPDA+ATP×^−3, usually made up or diluted to 10^−3 ATP on the day of testing. The filled cells were then covered with an Edicol collagen membrane (Devro, Sandy Run, S.C.) strip, and then with a just-treated (110 μl of 4.54 nmol/μl treatment or control solution) organdy cloth (G Street Fabrics, Rockville, Md.) strip. Mosquitoes used in tests were either Aedes aegypti_(Liverpool) or Anopheles stephensi_Liston. K&D modules containing 5 adult females/cell were placed over a Teflon separator atop each reservoir; the sliding floors opened allowing access to the treated organdy cloth and membrane-covered cell; and the number of mosquitoes biting (proboscis inserted through the cloth) and/or observed to be engorged within each cell at the end of a 3-5 min. exposure period was recorded. Mosquitoes were used only once in a test, and then frozen and discarded.
Only tests in which 3 or more females fed in the control cell were analyzed, as lower feeding rates are indicative of substandard feeding readiness of that group of mosquitoes.
[…] Data were collected to record knockdown in 6 minutes, one hour and 24 hours post exposure.

[2] = test system: bed bugs (Cimex lectularius); assay: Bed bug mortality on treated filter paper; type: in vivo; conditions: 24 h
[3] = test system: bed bugs (Cimex lectularius); assay: Bed bug mortality on treated filter paper; type: in vivo; conditions: Cimex lectularius, 24 h
Description: Knockdown data and mortality for volatile pyrethroids against bed bugs (Cimex lectularius): Compounds were dissolved in acetone to yield concentrations of 100 μg/cm^2, 10 μg/cm^2, and 1 μg/cm^2 and 47 mm filter paper disks were treated. Acetone-treated filter paper was used as a negative control. Mixed stages (nymphs and adults) of a laboratory colony of the bed bug Cimex lectularius were placed on the treated filter paper in glass Petri dishes and mortality was recorded 24 h later, at which time bed bugs were removed to untreated surfaces. 24 h after this transfer another assessment of mortality was made to see if any dead or moribund bugs had recovered.

Ae. aegypti mosquitoes = assay: Sleeve bite protection assay on treated uniform fabric, mosquitoes; type: in vivo, Aedes aegypti (Orlando, 1952)
Description: Biological Evaluation: Bite protection assays were conducted with laboratory-reared 7-12 day old mosquitoes or sand flies. The species used throughout these studies are Aedes aegypti (Orlando, 1952) and Phlebotomus papatasi sand flies (Jerusalem, 1983). Females were pre-selected using either a hand draw box or a mechanical aspirator. An assay was conducted by wearing sewn sleeves made from clothing material. Treated specimens were assayed with untreated controls to correct for the bite resistance afforded by material construction and composition. The untreated control was tested at the beginning of the experiment, followed by successively higher candidate repellent concentrations on sleeves. Sleeves were sewn from a cut out single ply trapezoidal pattern (33.2 cm×21 cm×25.5 cm height) of material. […] Permethrin was 35:65cis: trans, 95.85% technical material. Experimental repellents were received as neat samples with <5% impurities. The treatment occurred by dissolution of repellent in suitable quantity of acetone to saturate the clothing, but minimizing excess solution. Excess solution was quantified and this amount of excess was then used to calculate the estimated amount of repellent applied to the material. […] The photoperiod was 12:12. The mosquito cages were approximately 60000 cm^3 and each contained 175 to 225 female mosquitoes. […] Cages for sand fly work were slightly smaller (15000 cm^3) and constructed of acrylic for filming purposes and with screens on the exterior edges to allow air flow through the system. About 20-40 sand flies were released in cages for each assay. Assays started when the sleeved arm was inserted through the sleeve into the cage. Normally the hand was protected by a glove, but there were situations (i.e. sand fly data presented here) when the ability of a repellent to protect the untreated hand was determined. The assay periods were 15 min for the mosquitoes and 25-30 minutes for sand flies. The insects were allowed to land, probe and possibly bloodfeed during this time. At the conclusion of the experiment, all insects were knocked down or aspirated and the percentage that bloodfed of the total female test population in the cage was recorded. The protect level was calculated by Abbott's formula as a percentage reduction in bites compared to the untreated fabric control sleeve. Specific conditions for bioassays are noted with corresponding data contained in the Tables.

[4] = ACU (50/50 NYCO) sleeve, glove on hand, 15 min, permethrin 0.118, transfluthrin 0.108, TL-I-107 0.107, TL-I-141 0.109, TL-I-105 0.107, TL-I-73 0.102 mg/cm^2
[5] = ACU (50/50 NYCO) sleeve, glove on hand, Abbott's formula vs untreated sleeve, concentrations as E1
[6] = ACU (50/50 NYCO) sleeve, glove on hand, concentrations as E1
[7] = ACU sleeve, stored one year then tested, concentrations as E1
[8] = ACU sleeve, treated specimens stored in refrigerator for one year then tested, concentrations as E1

SMILES	Knockdown 6 min (%) ([1]; 2.5 nM\cm^2, K&D module)	Knockdown 24 hours (%) ([1]; 2.5 nM\cm^2, K&D module)	Not feeding 3 minutes (%) ([1]; 2.5 nM\cm^2, K&D module)	Knockdown 1 hour (%) ([1]; 2.5 nmol/cm^2, K&D module)	Knockdown 6 min (%) ([1]; 25 nM\cm^2, K&D module)	Knockdown 24 hours (%) ([1]; 25 nM\cm^2, K&D module)	Not feeding 3 minutes (%) ([1]; 25 nM\cm^2, K&D module)	Knockdown 1 hour (%) ([1]; 25 nmol/cm^2, K&D module)	mortality at 0.0025 µM [1] [%]	mortality at 0.025 µM [1] [%]	mortality at 5 µg/cm2 [2] [%]	mortality at 1 µg/cm2 [3] [%]	mortality at 10 µg/cm2 [3] [%]	mortality at 100 µg/cm2 [3] [%]	Blood-fed # (Ae. aegypti mosquitoes; [4])	Bite Protection (%) (Ae. aegypti mosquitoes; [5])	Fed (%) (Ae. aegypti mosquitoes; [6])	Bite Protection (%) (Ae. aegypti mosquitoes; [7])	Fed (%) (Ae. aegypti mosquitoes; [7])	Blood-fed # (Ae. aegypti mosquitoes; [8])
CC(C)=C[C@@H]1[C@@H](C(=O)OCc2c(F)c(F)c(C)c(F)c2F)C1(C)C [TL-I-105]	98	100	100	100	100	100	100	100	100	100	100	10	100	100	0 #	100	0.0	100	0.0	0 #
CC(C)=C[C@@H]1[C@@H](C(=O)OCc2c(F)c(F)cc(F)c2F)C1(C)C [TL-I-107]	100	100	100	100	100	100	100	100	100	100	100	0	100	100	0 #	100	0.0	100	0.0	0 #
